Measurements published in ChEMBL document CHEMBL4507268 (2021).

Assays:
[1] = target: Tyrosine-protein kinase Yes (Homo sapiens) (UniProt P07947); settings: Compound concentration 1000.0 nM
[2] = target: Cyclin-dependent kinase 3 (Homo sapiens) (UniProt Q00526); settings: Compound concentration 1000.0 nM
BT-474 = assay: Proliferation assay: BT-474 (breast cancer); type: functional, cell-based; settings: Homo sapiens
[3] = target: T1, Ephrin type-B receptor 4 (Homo sapiens) (UniProt P54760); settings: Compound concentration 1000.0 nM
T1 sequence (whole entry): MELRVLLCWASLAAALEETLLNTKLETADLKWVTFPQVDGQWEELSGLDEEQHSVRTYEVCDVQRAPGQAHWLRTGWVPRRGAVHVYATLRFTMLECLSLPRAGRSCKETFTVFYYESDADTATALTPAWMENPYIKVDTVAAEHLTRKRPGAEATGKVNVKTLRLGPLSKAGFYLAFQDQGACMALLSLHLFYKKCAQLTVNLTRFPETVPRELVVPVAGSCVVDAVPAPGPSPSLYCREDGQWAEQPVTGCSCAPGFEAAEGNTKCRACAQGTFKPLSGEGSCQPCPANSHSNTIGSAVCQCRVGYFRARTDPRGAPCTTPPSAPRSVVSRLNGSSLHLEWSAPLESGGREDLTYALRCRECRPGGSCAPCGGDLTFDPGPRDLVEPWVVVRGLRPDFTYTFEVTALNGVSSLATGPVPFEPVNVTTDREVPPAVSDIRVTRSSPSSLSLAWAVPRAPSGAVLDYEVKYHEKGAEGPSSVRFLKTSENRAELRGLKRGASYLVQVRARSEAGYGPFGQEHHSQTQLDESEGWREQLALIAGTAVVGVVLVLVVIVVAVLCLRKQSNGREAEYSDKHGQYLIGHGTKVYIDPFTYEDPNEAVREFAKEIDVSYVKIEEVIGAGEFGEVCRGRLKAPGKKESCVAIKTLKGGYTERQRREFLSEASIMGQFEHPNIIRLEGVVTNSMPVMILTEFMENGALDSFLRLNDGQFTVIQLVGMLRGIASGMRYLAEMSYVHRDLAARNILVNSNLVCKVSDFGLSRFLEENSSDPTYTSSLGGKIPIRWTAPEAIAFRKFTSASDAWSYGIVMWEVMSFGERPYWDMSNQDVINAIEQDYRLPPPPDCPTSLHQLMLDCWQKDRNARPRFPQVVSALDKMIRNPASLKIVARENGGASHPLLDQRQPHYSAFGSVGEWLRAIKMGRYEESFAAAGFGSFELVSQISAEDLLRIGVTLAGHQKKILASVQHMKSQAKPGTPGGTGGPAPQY

[4] = target: Cyclin-dependent kinase 4 (Homo sapiens) (UniProt P11802); settings: Compound concentration 1000.0 nM
Chain of Cyclin-dependent kinase 4 (Homo sapiens) (P11802 whole entry): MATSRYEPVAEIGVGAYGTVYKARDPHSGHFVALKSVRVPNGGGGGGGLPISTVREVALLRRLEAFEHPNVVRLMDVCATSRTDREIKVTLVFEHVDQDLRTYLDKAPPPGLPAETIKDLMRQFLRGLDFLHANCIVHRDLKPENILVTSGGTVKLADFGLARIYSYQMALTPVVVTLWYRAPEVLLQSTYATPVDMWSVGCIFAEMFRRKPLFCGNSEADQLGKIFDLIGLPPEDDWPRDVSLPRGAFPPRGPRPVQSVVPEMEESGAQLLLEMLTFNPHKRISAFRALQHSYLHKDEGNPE

[5] = target: Atypical kinase COQ8A, mitochondrial (Homo sapiens) (UniProt Q8NI60); settings: Compound concentration 1000.0 nM
Chain of Atypical kinase COQ8A, mitochondrial (Homo sapiens) (Q8NI60 163-647 limits assumed): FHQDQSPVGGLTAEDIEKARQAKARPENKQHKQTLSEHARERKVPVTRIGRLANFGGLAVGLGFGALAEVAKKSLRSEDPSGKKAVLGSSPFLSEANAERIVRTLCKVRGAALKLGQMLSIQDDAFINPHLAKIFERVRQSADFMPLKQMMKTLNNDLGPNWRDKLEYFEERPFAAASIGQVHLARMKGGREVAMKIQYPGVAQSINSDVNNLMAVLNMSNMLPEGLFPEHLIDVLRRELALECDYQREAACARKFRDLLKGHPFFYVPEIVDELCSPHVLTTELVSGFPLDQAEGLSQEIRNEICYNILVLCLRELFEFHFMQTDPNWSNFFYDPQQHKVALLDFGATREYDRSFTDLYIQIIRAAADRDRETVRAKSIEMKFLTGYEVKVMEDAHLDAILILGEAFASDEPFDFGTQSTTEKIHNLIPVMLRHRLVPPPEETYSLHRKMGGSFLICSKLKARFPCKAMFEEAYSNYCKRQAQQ

[6] = target: T2, cGMP-dependent protein kinase 2 (Homo sapiens) (UniProt Q13237); settings: Compound concentration 1000.0 nM
T2 sequence (whole entry): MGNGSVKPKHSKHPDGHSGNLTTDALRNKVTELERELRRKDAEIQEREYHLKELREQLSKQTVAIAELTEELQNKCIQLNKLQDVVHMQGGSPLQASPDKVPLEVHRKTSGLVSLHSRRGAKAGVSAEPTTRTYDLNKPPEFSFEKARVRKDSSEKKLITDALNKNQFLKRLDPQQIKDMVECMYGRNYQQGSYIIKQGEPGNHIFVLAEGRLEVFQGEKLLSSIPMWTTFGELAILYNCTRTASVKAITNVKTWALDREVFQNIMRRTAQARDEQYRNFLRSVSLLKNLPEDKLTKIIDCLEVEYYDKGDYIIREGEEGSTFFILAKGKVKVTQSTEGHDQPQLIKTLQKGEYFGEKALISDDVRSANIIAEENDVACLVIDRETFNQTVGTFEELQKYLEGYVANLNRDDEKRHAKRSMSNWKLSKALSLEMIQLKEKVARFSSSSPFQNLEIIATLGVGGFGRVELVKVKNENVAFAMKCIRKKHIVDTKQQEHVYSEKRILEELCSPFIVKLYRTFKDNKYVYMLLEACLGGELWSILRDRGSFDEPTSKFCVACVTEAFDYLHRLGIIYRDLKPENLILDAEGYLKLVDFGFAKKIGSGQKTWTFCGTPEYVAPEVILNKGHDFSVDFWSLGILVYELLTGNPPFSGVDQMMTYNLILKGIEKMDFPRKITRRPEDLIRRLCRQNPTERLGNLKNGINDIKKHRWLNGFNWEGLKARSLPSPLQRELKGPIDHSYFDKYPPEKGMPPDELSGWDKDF

[7] = target: T3, Ephrin type-B receptor 3 (Homo sapiens) (UniProt P54753); settings: Compound concentration 1000.0 nM
T3 sequence (whole entry): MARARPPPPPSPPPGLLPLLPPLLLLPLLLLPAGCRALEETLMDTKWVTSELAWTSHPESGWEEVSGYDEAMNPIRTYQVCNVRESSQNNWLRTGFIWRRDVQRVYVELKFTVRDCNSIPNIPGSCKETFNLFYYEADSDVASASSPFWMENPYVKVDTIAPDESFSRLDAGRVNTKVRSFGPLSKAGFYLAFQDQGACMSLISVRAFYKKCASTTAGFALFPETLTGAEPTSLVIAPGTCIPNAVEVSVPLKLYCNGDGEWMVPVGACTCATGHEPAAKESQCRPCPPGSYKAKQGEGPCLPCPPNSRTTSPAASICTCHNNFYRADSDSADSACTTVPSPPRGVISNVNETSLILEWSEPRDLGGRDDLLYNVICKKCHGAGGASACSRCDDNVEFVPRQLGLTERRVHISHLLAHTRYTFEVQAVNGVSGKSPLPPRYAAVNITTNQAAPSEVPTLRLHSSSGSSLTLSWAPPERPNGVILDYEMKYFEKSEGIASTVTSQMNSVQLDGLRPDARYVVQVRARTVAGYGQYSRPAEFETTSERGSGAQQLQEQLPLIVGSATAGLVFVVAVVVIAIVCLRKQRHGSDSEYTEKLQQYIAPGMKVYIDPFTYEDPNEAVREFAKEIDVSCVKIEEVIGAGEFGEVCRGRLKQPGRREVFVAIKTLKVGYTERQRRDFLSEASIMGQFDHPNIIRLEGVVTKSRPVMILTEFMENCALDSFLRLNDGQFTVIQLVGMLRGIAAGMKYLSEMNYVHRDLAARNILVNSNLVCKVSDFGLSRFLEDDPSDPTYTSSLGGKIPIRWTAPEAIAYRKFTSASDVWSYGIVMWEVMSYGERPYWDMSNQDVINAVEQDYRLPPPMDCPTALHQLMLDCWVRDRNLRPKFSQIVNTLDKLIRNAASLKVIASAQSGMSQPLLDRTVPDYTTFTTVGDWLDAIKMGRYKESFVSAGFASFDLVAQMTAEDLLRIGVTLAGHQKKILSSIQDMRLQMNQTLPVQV

[8] = target: Serine/threonine-protein kinase LATS2 (Homo sapiens) (UniProt Q9NRM7); settings: Compound concentration 1000.0 nM
Chain of Serine/threonine-protein kinase LATS2 (Homo sapiens) (Q9NRM7 whole entry): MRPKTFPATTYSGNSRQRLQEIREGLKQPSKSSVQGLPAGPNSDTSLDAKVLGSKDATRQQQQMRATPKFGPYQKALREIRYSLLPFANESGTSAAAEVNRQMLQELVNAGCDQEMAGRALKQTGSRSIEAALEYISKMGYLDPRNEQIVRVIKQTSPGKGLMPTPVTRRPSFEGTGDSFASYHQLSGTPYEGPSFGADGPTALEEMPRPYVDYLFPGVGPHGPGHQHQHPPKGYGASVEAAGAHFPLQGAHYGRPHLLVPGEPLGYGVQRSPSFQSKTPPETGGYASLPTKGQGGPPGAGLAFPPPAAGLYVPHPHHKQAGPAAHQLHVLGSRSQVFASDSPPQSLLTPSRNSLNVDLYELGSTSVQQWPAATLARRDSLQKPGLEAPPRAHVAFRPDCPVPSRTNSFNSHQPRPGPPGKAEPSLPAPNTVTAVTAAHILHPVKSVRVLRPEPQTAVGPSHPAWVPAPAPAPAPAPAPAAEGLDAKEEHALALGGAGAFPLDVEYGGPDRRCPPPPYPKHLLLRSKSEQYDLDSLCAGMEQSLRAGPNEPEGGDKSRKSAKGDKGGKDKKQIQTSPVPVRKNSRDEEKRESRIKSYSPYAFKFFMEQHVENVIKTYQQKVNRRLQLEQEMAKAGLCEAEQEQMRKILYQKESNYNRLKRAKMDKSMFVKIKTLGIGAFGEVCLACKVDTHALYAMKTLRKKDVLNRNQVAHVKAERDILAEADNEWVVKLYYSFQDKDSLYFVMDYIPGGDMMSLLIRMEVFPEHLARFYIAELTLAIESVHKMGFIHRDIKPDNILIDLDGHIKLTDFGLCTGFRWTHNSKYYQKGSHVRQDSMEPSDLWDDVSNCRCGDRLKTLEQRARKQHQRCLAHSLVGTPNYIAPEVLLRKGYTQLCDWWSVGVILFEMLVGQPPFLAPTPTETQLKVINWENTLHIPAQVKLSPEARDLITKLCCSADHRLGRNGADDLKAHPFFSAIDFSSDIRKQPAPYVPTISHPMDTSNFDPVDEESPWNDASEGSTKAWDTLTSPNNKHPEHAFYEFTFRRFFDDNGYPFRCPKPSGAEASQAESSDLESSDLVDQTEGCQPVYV

Chain of Tyrosine-protein kinase Yes (Homo sapiens) (P07947 2-543 limits assumed): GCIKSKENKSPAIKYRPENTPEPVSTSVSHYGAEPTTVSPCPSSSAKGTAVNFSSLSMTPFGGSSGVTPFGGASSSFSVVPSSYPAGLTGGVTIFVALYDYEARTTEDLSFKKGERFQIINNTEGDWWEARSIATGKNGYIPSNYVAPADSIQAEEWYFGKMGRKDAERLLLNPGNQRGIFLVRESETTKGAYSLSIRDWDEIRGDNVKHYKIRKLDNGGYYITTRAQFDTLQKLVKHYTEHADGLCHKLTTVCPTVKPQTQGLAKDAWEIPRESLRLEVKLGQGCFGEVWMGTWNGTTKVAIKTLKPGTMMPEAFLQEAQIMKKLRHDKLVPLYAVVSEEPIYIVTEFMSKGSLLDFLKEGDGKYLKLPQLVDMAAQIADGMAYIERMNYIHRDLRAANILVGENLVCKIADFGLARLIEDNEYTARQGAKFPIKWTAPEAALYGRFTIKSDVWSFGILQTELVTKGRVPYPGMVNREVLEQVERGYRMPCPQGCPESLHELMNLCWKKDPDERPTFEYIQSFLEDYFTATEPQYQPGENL
Chain of Cyclin-dependent kinase 3 (Homo sapiens) (Q00526 whole entry, looked up): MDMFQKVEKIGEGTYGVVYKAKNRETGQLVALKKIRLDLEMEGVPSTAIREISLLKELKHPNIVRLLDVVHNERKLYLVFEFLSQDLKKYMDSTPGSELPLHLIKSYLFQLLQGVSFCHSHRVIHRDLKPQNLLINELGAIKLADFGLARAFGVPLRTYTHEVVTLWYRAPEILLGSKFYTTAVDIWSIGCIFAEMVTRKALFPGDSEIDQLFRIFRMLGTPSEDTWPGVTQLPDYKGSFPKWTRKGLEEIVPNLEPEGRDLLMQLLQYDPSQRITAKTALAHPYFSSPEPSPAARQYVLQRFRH

| Structure (SMILES) | residual activity [1] [%] | residual activity [2] [%] | IC50 (BT-474) | residual activity [3] [%] | residual activity [4] [%] | residual activity [5] [%] | residual activity [6] [%] | residual activity [7] [%] | residual activity [8] [%] |
| --- | --- | --- | --- | --- | --- | --- | --- | --- | --- |
| Cc1nc(C2CCN(C(=O)c3ccc(OC(F)(F)F)cc3N)CC2)c2ncc(N3CCN(C)CC3)cc2n1 [BAY-693] | 100 | 100 | 27.6 µM (not active) | 92 | 100 | 100 | 74 | 100 | 100 |
| CN1CCN(c2cnc3c(C4CCN(C(=O)c5ccc(OC(F)(F)F)cc5N)CC4)ncnc3c2)CC1 [BAY-885] | 100 | 100 | > 30 µM (not active) | 100 | 100 | 100 | 77 | 100 | 100 |
